Results as given in patent US8466176B2 (priority 2008, dated 2013).

Experiment: logP(HCOOH) reported with HPLC/MS
[1] = method [a]: HPLC on reversed phase columns, pH 2.3 with 0.1% phosphoric acid and acetonitrile as eluent
[2] = method [b]: LC-MS at pH 2.7, 0.1% formic acid in water and acetonitrile, linear gradient 10% to 95% acetonitrile
[3] = method [b]: LC-MS, pH 2.7 with 0.1% formic acid in water and acetonitrile (0.1% formic acid), linear gradient 10% to 95% acetonitrile
[4] = HCOOH (formic acid), logP(HCOOH), HPLC/MS
[5] = method [b]: LC-MS at pH 2.7 with 0.1% formic acid in water and acetonitrile (0.1% formic acid), linear gradient 10% to 95% acetonitrile

## C#Cc1nc(CON=C(c2ccccc2)c2nnnn2C)cs1 [Example 139]
[1]
  log p: 2.77^[a]

## Cn1nnnc1C(=NOCc1nc(C#CCC2CCCC2)ccc1F)c1ccccc1 [Example 98]
[2]
  log p: 4.92^[b]

## CCCCCNC(=S)Nc1cccc(CON=C(c2ccccc2)n2nnnc2C)n1 [Example 13]
[2]
  log p: 3.82^[b]

## CCC(=O)OCC#Cc1cccc(CON=C(c2ccccc2)c2nnnn2C)n1 [Example 254]
[3]
  log p: 3.29^[b]

## CSc1cccc(C(=NOCc2csc(N)n2)c2nnnn2C)c1 [4-{[({[3-(methylsulfanyl)phenyl](1-methyl-1H-tetrazol-5-yl)methylene}amino)oxy]methyl}-1,3-thiazol-2-amine]
[4]
  chromatographic logP: 1.76

## Cn1nnnc1C(=NOCc1ncc(C(F)(F)F)cc1Cl)c1ccccc1 [Example 43]
[2]
  log p: 3.76^[b]

## Cn1nnnc1C(=NOCc1csc(C#Cc2ccccc2C(F)(F)F)n1)c1ccccc1 [Example 267]
[5]
  log p: 4.51^[b]

## Cn1nnnc1C(=NOCc1cccc(C#Cc2ccc3ccccc3c2)n1)c1ccccc1 [Example 208]
[3]
  log p: 4.78^[b]

## Cn1nnnc1C(=NOCc1cccc(N(CCC2CC(F)(F)C2(F)F)C(=O)OC(C)(C)C)n1)c1ccccc1 (centres unmarked) [Example 140]
[1]
  log p: 5.05^[a]

## Cn1nnnc1C(=NOCc1cccc(C#Cc2cccc(C(F)(F)F)c2)n1)c1ccccc1 [Example 218]
[3]
  log p: 4.62^[b]

## Cn1nnnc1C(=NOCc1csc(C#Cc2cccc(OC(F)(F)F)c2)n1)c1ccccc1 [Example 265]
[3]
  log p: 4.81^[b]

## Cc1c(F)ccc(Br)[n+]1[O-] [6-bromo-3-fluoro-2-methylpyridine 1-oxide]
[4]
  chromatographic logP: 0.56

## CN(C)C(=O)c1cccc(CON=C(c2ccccc2)c2nnnn2C)n1 [Example 77]
[2]
  log p: 2.04^[b]

## Cn1nnnc1C(=NOCc1csc(C#CCCCC#N)n1)c1cccc(F)c1 [Example 154]
[3]
  log p: 3.09^[b]

## Cc1sc(Br)nc1CO [(2-bromo-5-methyl-1,3-thiazol-4-yl)methanol]
[4]
  chromatographic logP: 1.1

## CCCOc1ccc(C#Cc2cccc(CON=C(c3ccccc3)c3nnnn3C)n2)cc1 [Example 246]
[3]
  log p: 4.86^[b]

## CCc1ccc(C#Cc2nc(CON=C(c3ccccc3)c3nnnn3C)ccc2OC)cc1 [Example 134]
[3]
  log p: 4.56^[b]

## CC(C)CC(=O)NCc1cccc(CON=C(c2ccccc2)c2nnnn2C)n1 [Example 56]
[2]
  log p: 2.51^[b]

## Cn1nnnc1C(=NOCc1nc(C#CCCCc2ccccc2)sc1Cl)c1ccccc1 [Example 123]
[2]
  log p: 5.56^[b]

## COC(=O)c1nc(Br)sc1C [methyl 2-bromo-5-methyl-1,3-thiazole-4-carboxylate]
HPLC/MS
  chromatographic logP: 1.84

## CCCC#Cc1nc(CON=C(c2ccccc2)c2nnnn2C)c(Cl)s1 [Example 115]
[2]
  log p: 4.75^[b]

## COC(=O)CCCC#Cc1nc(CON=C(c2ccccc2)c2nnnn2C)cs1 [Example 195]
[3]
  log p: 3.33^[b]

## CSc1cccc(C(=NOCc2csc(NCCCc3ccccc3)n2)c2nnnn2C)c1 [Example 305]
[5]
  log p: 3.71^[b]

## CC(C)CCC#Cc1nc(CON=C(c2ccccc2)c2nnnn2C)c(Cl)s1 [Example 118]
[2]
  log p: 5.59^[b]

## Cc1cccc(CON=C(c2ccccc2)c2nnnn2C)n1 [Example 42]
[2]
  log p: 1.67^[b]

## Cn1nnnc1C(=NOCc1cccc(C#CCCCC#N)n1)c1ccccc1 [Example 239]
[3]
  log p: 2.9^[b]

## Cn1nnnc1C(=NOCc1nc(C#CCc2ccccc2)ccc1F)c1ccccc1 [Example 100]
[2]
  log p: 4.24^[b]

## CC(C)c1nc(CON=C(c2ccccc2)c2nnnn2C)cs1 [Example 78]
[2]
  log p: 3.39^[b]

## CSc1cccc(C(=NOCc2csc(C#CC3CCCCC3)n2)c2nnnn2C)c1 [Example 304]
[5]
  log p: 5.29^[b]

## Cn1nnnc1C(=NOCc1cccc(C#Cc2ccccc2F)n1)c1ccccc1 [Example 247]
[3]
  log p: 4.06^[b]

## Cn1nnnc1C(=NOCc1cccc(N(CCC2CCCCC2)C(=O)OC(C)(C)C)n1)c1ccccc1 [Example 141, tert-butyl (2-cyclohexylethyl){6-[({[(1-methyl-1H-tetrazol-5-yl)(phenyl)methylene]amino}oxy)methyl]pyridin-2-yl}carbamate]
[4]
  chromatographic logP: 6.56
Reversed phase HPLC columns, pH 2.3, log p, method [a]: HPLC on reversed phase columns, pH 2.3 with 0.1% phosphoric acid and acetonitrile as eluent
  chromatographic logP: 6.56

## Cn1nnnc1C(=NOCc1cccc(C#CCCO)n1)c1ccccc1 [Example 253]
[3]
  log p: 2.23^[b]

## Fc1ccc(Br)nc1CBr [6-bromo-2-(bromomethyl)-3-fluoropyridine]
logP(HCOOH), HPLC/MS
  chromatographic logP: 2.58

## Cn1nnnc1C(=NOCc1cccc(C#Cc2cccs2)n1)c1ccccc1 [Example 206]
[3]
  log p: 3.94^[b]

## Cn1nnnc1C(=NOCc1cccc(CNC(=O)CCc2ccccc2)n1)c1ccccc1 [Example 58]
[2]
  log p: 2.82^[b]

## CCCCCC(=O)NCc1cccc(CON=C(c2ccccc2)c2nnnn2C)n1 [Example 53, N-({6-[({[(1-methyl-1H-tetrazol-5-yl)(phenyl)methylene]amino}oxy)methyl]pyridin-2-yl}methyl)hexanamide]
[4]
  chromatographic logP: 2.88
Reversed phase HPLC column, pH 2.7, log p, method [b]: LC-MS at pH 2.7, 0.1% formic acid in water and acetonitrile, linear gradient 10% to 95% acetonitrile
  chromatographic logP: 2.88

## Cn1nnnc1C(=NOCc1cccc(C#Cc2ccc(F)cc2)n1)c1ccccc1 [Example 223]
[3]
  log p: 4.11^[b]

## CCOCCOCCNc1cccc(CON=C(c2ccccc2)c2nnnn2C)n1 [Example 197]
[1]
  log p: 1.7^[a]

## CSc1cccc(C(=NOCc2cccc(NCCC3CCCCC3)n2)c2nnnn2C)c1 [Example 298]
[5]
  log p: 3.17^[b]

## CCCCCN(C)C(=O)c1cccc(CON=C(c2ccccc2)c2nnnn2C)n1 [Example 85]
[2]
  log p: 3.29^[b]

## Cn1nnnc1C(=NOCc1cccc(NCCC2CC(F)(F)C2(F)F)n1)c1ccccc1 (centres unmarked) [Example 143]
[1]
  log p: 2.51^[a]

## Cn1nnnc1C(=NOCc1cccc(C#Cc2ccc(Oc3ccccc3)cc2)n1)c1ccccc1 [Example 234]
[3]
  log p: 5.08^[b]

## Cc1nnnn1C(=NOCc1cccc(NC(=S)Nc2ccccc2)n1)c1ccccc1 [Example 5]
[2]
  log p: 3.31^[b]

## CCCCC#Cc1nc(CON=C(c2ccccc2)c2nnnn2C)c(C)s1 [Example 183]
[3]
  log p: 3.37^[b]

## Cn1nnnc1C(=NOCc1cccc(CNC(=O)C(C)(C)C)n1)c1ccccc1 [Example 55]
[2]
  log p: 2.58^[b]

## Cn1nnnc1C(=NOCc1cccc(C#CC2=CCCCC2)n1)c1ccccc1 [Example 124]
[2]
  log p: 4.34^[b]

## O=C1c2ccccc2C(=O)N1Cc1cccc(CCl)n1 [2-{[6-(chloromethyl)pyridin-2-yl]methyl}-1H-isoindole-1,3(2H)-dione]
[4]
  chromatographic logP: 2.51

## Cn1nnnc1C(=NOCc1cccc(C#CCCC2CCCCC2)n1)c1ccccc1 [Example 237]
[3]
  log p: 5.62^[b]

## Cc1sc(C#CC2CC2)nc1CON=C(c1ccccc1)c1nnnn1C [Example 181]
Reversed phase HPLC column, pH 2.7, log p, method [b]: LC-MS, pH 2.7 with 0.1% formic acid in water and acetonitrile (0.1% formic acid), linear gradient 10% to 95% acetonitrile
  chromatographic logP: 3.83

## Cc1sc(C#CC(C)C)nc1CON=C(c1ccccc1)c1nnnn1C [Example 189]
[3]
  log p: 4.21^[b]

## CSc1cccc(C(=NOCc2cccc(N3C(=O)c4ccccc4C3=O)n2)c2nnnn2C)c1 [2-(6-{[({[3-(methylsulfanyl)phenyl](1-methyl-1H-tetrazol-5-yl)methylene}amino)oxy]methyl}pyridin-2-yl)-1H-isoindole-1,3(2H)-dione]
logP(HCOOH), HPLC/MS
  chromatographic logP: 3.39

## CCCCONc1cccc(CON=C(c2ccccc2)c2nnnn2C)n1 [Example 286]
[5]
  log p: 3.39^[b]

## CCCC#Cc1nc(CON=C(c2cccc(F)c2)c2nnnn2C)cs1 [Example 151]
[3]
  log p: 4.09^[b]

## CCCCC#Cc1nc(CON=C(c2cccc(F)c2)c2nnnn2C)cs1 [Example 149]
[3]
  log p: 4.51^[b]
